Measured values published in ChEMBL document CHEMBL4808180, “Identification of 2,2-Dimethylbutanoic Acid (HST5040), a Clinical Development Candidate for the Treatment of Propionic Acidemia and Methylmalonic Acidemia” (J Med Chem, 2021).
Calls of active or inactive are those of the source. The rule behind the calls is not given here.

Columns and labels:
[1] = Reduction of propionyl-CoA in human hepatocytes derived from methylmalonic acidemia pretreated for 30 mins followed by 13C-isoleucine addition and measured after 1 hr by MS/MS analysis; format: functional, cell-based; details: hepatocyte
[2] = molecular target: Solute carrier family 22 member 2 (Homo sapiens) (UniProt O15244); assay: Inhibition of human OCT2 assessed as reduction in OCT2-mediated metformin transport at 14900 uM relative to control
Sequence of Solute carrier family 22 member 2 (Homo sapiens) (O15244 whole entry, looked up): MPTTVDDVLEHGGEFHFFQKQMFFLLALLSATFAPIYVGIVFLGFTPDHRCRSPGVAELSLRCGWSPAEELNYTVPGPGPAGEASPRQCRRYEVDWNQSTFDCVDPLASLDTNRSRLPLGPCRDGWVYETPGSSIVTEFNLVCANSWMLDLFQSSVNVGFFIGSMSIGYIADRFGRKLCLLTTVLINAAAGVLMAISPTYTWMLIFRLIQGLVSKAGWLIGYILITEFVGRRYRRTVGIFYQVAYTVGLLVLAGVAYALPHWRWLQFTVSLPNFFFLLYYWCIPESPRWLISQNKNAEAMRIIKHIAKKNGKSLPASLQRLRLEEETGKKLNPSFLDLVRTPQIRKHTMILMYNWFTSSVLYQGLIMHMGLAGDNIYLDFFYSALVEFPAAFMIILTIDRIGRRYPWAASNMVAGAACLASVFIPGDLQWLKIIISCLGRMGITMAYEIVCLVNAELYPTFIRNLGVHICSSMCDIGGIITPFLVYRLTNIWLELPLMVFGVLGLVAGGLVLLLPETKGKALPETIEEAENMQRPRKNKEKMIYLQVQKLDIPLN

[3] = Clearance in Sprague-Dawley rat at 10 mg/kg, iv; format: ADME, organism-based; details: in vivo
[4] = Half life in Sprague-Dawley rat at 200 mg/kg, po; format: ADME, organism-based; details: in vivo
[5] = Reduction of acetyl-CoA in human hepatocytes derived from propionic acidemia patient at 30 uM pretreated for 30 mins followed by 13C-isoleucine addition and measured after 1 hr by MS/MS analysis relative to control; format: functional, Hepatocyte; parameters: scale not given: the % may be the effect or the level left; details: time 90 min, 1.5 h
[6] = Tmax in CD1 mouse at 30 mg/kg, po; format: ADME, organism-based; details: in vivo
[7] = Oral bioavailability in Sprague-Dawley rat at 10 mg/kg; format: ADME, organism-based; details: in vivo
[8] = Drug level in Gottingen minipig blood at 10 mg/kg, po using radiolabeled compound measured after 96 hrs by quantitative whole-body autoradiography; format: ADME, organism-based, Sus scrofa domesticus; details: pig, in vivo, BLD = below limit of detection
[9] = Apparent permeability of the compound across apical to basal side in human Caco-2 cells; format: ADME, cell-based
[10] = Cmax in CD1 mouse at 30 mg/kg, iv; format: ADME, organism-based; parameters: route intravenous, dose 30 mg/kg; details: in vivo
[11] = Cmax in Sprague-Dawley rat at 50 mg/kg, po; format: ADME, organism-based; parameters: route oral, dose 50 mg/kg; details: in vivo
[12] = Protein binding in Sprague-Dawley rat plasma at 40 uM incubated for 4 hrs by equilibrium dialysis; format: ADME, cell-free
[13] = molecular target: T1, Organic anion transporter 3 (Homo sapiens, UniProt Q8TCC7); assay: Inhibition of human OAT3 assessed as reduction in OAT3-mediated tenofovir transport
T1 sequence (Q8TCC7 whole entry): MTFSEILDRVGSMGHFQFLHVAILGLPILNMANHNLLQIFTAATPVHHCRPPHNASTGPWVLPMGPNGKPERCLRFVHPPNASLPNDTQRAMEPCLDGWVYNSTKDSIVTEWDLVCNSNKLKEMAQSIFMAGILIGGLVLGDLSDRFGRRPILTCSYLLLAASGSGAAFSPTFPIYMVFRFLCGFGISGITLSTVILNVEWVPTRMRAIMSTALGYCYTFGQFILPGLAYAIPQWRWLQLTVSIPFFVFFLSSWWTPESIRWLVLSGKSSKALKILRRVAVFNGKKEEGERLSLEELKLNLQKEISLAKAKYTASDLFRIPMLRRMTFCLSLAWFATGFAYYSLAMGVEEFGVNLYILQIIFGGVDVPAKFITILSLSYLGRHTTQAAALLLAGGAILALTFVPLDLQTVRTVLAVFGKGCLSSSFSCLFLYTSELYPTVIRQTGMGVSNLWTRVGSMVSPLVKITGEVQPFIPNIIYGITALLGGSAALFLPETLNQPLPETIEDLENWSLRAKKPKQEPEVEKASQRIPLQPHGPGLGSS

[14] = AUC (0 to infinity) in CD1 mouse at 30 mg/kg, po; format: ADME, organism-based; parameters: time infinity, route oral, dose 30 mg/kg; details: in vivo
[15] = Cmax in CD1 mouse at 100 mg/kg, po; format: ADME, organism-based; parameters: route oral, dose 100 mg/kg; details: in vivo
[16] = Protein binding in human plasma at 40 uM incubated for 4 hrs by equilibrium dialysis; format: ADME, cell-free
[17] = Cmax in Sprague-Dawley rat at 10 mg/kg, po; format: ADME, organism-based; parameters: route oral, dose 10 mg/kg; details: in vivo
[18] = Drug excretion in Gottingen minipig feces at 10 mg/kg, po using radiolabeled compound by quantitative whole-body autoradiography; format: ADME, organism-based, Sus scrofa domesticus; details: pig, in vivo
[19] = Oral bioavailability in CD1 mouse at 300 mg/kg; format: ADME, organism-based; details: in vivo
[20] = Induction of toxicity in minipig assessed as induction of adverse effect at 300 mg/kg/day; format: organism-based, Sus scrofa domesticus; details: pig, in vivo
[21] = molecular target: T2, OAT3 (Homo sapiens, UniProt Q8TCC7); assay: Inhibition of human OAT3 assessed as reduction in OAT3-mediated tenofovir transport at 14900 uM relative to control; details: not told, probe tenofovir
T2 sequence (Q8TCC7 whole entry): T1 sequence (Q8TCC7 whole entry)

[22] = Drug metabolism in cynomolgus monkey hepatocytes assessed as formation of 2,2-dimethylbutanoic acid-CoA incubated for 1 hrs by MS/MS analysis; format: ADME, cell-based; details: Macaca fascicularis, Hepatocyte
[23] = Oral bioavailability in Sprague-Dawley rat at 200 mg/kg; format: ADME, organism-based; details: in vivo
[24] = Drug metabolism in rat hepatocytes assessed as formation of 2,2-dimethylbutanoic acid-CoA incubated for 1 hrs by MS/MS analysis; format: ADME, cell-based; details: Hepatocyte
[25] = molecular target: T3, OATP1B1 (Homo sapiens, UniProt Q9Y6L6); assay: Inhibition of human OATP1B1 assessed as reduction in OATP1B1- mediated E217betaG transport at 14900 uM relative to control; details: not told, probe E217betaG
T3 sequence (Q9Y6L6 whole entry): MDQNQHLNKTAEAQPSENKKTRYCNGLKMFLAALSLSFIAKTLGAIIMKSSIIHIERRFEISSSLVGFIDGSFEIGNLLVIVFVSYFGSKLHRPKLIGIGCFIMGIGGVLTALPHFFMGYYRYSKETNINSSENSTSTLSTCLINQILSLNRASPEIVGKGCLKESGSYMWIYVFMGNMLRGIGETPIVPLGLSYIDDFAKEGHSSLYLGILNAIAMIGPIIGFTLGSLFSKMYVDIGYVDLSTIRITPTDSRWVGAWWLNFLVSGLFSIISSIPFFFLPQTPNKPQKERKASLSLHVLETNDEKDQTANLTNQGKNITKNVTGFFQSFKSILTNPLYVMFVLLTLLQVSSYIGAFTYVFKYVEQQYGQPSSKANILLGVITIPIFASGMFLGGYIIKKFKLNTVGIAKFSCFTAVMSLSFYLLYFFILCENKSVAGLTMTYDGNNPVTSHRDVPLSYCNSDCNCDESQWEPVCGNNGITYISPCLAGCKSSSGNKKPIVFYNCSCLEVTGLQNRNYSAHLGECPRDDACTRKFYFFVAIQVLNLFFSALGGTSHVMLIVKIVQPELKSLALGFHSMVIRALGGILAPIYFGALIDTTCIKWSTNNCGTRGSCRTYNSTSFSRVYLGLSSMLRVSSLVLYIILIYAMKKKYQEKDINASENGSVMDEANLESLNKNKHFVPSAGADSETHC

[26] = Drug metabolism in Gottingen minipig plasma assessed as HST5040-carnitine metabolite formation at 10 mg/kg administered as single dose by LC/MS analysis; format: ADME, organism-based, Sus scrofa domesticus; details: pig, in vivo
[27] = Drug metabolism in minipig assessed as beta-oxidation by measuring phase1 metabolite formation at 10 mg/kg administered single dose using radiolabeled compound; format: ADME, organism-based, Sus scrofa domesticus; details: pig, in vivo
[28] = Drug metabolism in human hepatocytes derived from methylmalonic acidemia patient assessed as formation of 2,2-dimethylbutanoic acid-CoA pretreated for 30 mins followed by 13C-isoleucine addition and measured after 1 hr by MS/MS analysis relative to control; format: ADME, cell-based; details: Hepatocyte
[29] = AUC (0 to infinity) in Gottingen minipig at 10 mg/kg, po using radiolabeled compound by quantitative whole-body autoradiography; format: ADME, organism-based, Sus scrofa domesticus; parameters: time infinity, route oral, dose 10 mg/kg; details: pig, in vivo
[30] = system: Hepatocyte; assay: Cytotoxicity against rat hepatocytes assessed as reduction in cell viability using radiolabeled compound; format: cell-based

CCC(C)(C)C(=O)O [DIMEBUTIC ACID]
EC50 [1]: 2.1 µM
inhibition [2]: inactive
clearance [3]: 17.3 mL/min/kg
half-life [4]: 2.73 h
Activity [5]: 54%
Tmax [6]: 0.438 h
bioavailability [7]: 57.1%
Drug uptake [8]: Bld
Papp A→B [9]: > 20 ×10⁻⁶ cm/s
Cmax [10]: 59400 ng/mL
Cmax [11]: 21900 ng/mL
PPB [12]: 0%
IC50 [13]: 3510 µM
AUC(0-inf) [14]: 37500 ng·h/mL
Cmax [15]: 118000 ng/mL
PPB [16]: 0%
Cmax [17]: 4270 ng/mL
Drug excretion [18]: 2.26%
F [19]: 177.5%
Activity [20]: Non-Toxic
inhibition at 14900 µM [21]: 90.9%
EC50 [22]: 46.2 µM
bioavailability [23]: 126%
EC50 [24]: 202 µM
inhibition at 14900 µM [25]: 25.9%
Drug metabolism [26]: Metabolite_Detected
Drug metabolism [27]: Metabolite_Notdetected
EC50 [28]: 3.5 µM
AUC [29]: 91300 ng·h/mL
Activity [30]: Non-Toxic
